Source: publication PMC5681660, “Reduced hepatitis B and D viral entry using clinically applied drugs as novel inhibitors of the bile acid transporter NTCP” (Scientific Reports, 2017)
Where a name gives a salt, the structure may show the parent alone. Read-outs that look alike come from different tables or passages of the source.

How the values were obtained:
[1] = target: T1, human NTCP (Homo sapiens, UniProt Q14973); assay: Screening taurocholate uptake assay (96-well, [14C]taurocholate, 10 µM drug)
T1 sequence (Q14973 1-349): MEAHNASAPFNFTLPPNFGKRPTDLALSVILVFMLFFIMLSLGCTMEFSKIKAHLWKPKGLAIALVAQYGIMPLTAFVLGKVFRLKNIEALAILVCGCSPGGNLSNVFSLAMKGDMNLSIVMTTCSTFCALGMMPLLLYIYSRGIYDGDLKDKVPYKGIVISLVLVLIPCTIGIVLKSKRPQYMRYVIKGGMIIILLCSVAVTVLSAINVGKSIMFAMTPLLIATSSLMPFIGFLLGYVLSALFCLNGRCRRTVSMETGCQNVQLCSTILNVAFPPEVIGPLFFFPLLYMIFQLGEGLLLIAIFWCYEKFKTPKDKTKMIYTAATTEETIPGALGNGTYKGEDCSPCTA

[2] = target: T1, human NTCP; assay: Screening fluorescent competitive Myrcludex B-FITC binding assay (96-well, 10 µM drug)
[3] = Prestwick library screen, taurocholate uptake, 10 µM drug
[4] = ranking score beside the functional and binding assay B-scores of the screen
[5] = Prestwick library screen, Myrcludex B-FITC binding, 10 µM drug
[6] = combined ranking from functional and binding screening assays
[7] = screen, 10 µM drug, taurocholate uptake
[8] = screen, 10 µM drug, Myrcludex B-FITC binding
[9] = Prestwick library screen, 10 µM drug, B-score of taurocholate uptake
[10] = combined ranking from functional and binding assay B-scores
[11] = Prestwick library screen, 10 µM drug, B-score of Myrcludex B-FITC binding

Compound: O=C(O)COCCN1CCN(C(c2ccccc2)c2ccc(Cl)cc2)CC1 (centres unmarked) [Cetirizine dihydrochloride]
- B-score functional assay [1, 3]: 0.907
- Ranking score [1, 4]: 820.204
- B-score binding assay [2, 5]: 0.001

Compound: CC(=O)Oc1cc(C(F)(F)F)ccc1C(=O)O [Triflusal]
- Ranking score [1, 6]: 440.15
- B-score functional assay [1, 7]: -0.747
- B-score binding assay [2, 8]: -0.002

Compound: CC(Cc1ccc(O)cc1)NCC(O)c1cc(O)cc(O)c1 (centres unmarked) [Fenoterol hydrobromide]
- Ranking score [1, 6]: 457.393
- B-score functional assay [1, 7]: 1.4
- B-score binding assay [2, 8]: -1.328

Compound: C[C@]12CC[C@@H](O)C[C@H]1CC[C@@H]1[C@@H]2CC[C@]2(C)C(=O)CC[C@@H]12 [3-alpha-Hydroxy-5-beta-androstan-17-one]
- B-score functional assay [1]: -2.764
- Ranking score [1]: 235.83
- B-score binding assay [2]: 0.051

Compound: O=C1c2ccccc2S(=O)(=O)N1CCCCN1CCN(c2ncccn2)CC1 [Ipsapirone]
- B-score functional assay [1, 9]: 1.921
- Ranking score [1, 10]: 1093.42
- B-score binding assay [2, 11]: 0.854

Compound: COc1cccc(C2(O)CCCCC2CN(C)C)c1.Cl (centres unmarked) [Tramadol hydrochloride]
- Ranking score [1, 6]: 410.66
- B-score functional assay [1, 7]: 0.906
- B-score binding assay [2, 8]: -1.463

Compound: Brc1c(NC2=NCCN2)ccc2nccnc12.O=C(O)C(O)C(O)C(=O)O [Brimondine L-Tartrate]
- Ranking score [1, 6]: 294.551
- B-score functional assay [1, 7]: -1.091
- B-score binding assay [2, 8]: -0.57

Compound: CN[C@@H]1[C@@H](O[C@H]2O[C@H](CO)[C@@H](N)[C@H](O)[C@H]2O)OC2C[C@@H](N)[C@@H](O[C@H]3[C@H](O)[C@@H](O)[C@H](N)C[C@@H]3N)OC2[C@@H]1O (some centres unmarked) [Apramycin]
- Ranking score [1, 6]: 397.98
- B-score functional assay [1, 7]: -0.431
- B-score binding assay [2, 8]: -0.447

Compound: O=C(Cn1ccnc1[N+](=O)[O-])NCCO [Etanidazole]
- B-score functional assay [1, 3]: -0.015
- Ranking score [1, 4]: 680.728
- B-score binding assay [2, 5]: 0.108

Compound: CN(C)CCCN1c2ccccc2Sc2ccccc21 [Promazine hydrochloride]
- B-score functional assay [1]: 0.194
- Ranking score [1]: 494.272
- B-score binding assay [2]: -0.725

Compound: C[C@@H](c1ncncc1F)[C@](O)(Cn1cncn1)c1ccc(F)cc1F [Voriconazole]
- Ranking score [1, 6]: 370.988
- B-score functional assay [1, 7]: -0.582
- B-score binding assay [2, 8]: -0.464

Compound: Cc1c(N)c(=O)n(-c2ccccc2)n1C [Ampyrone]
- B-score functional assay [1]: 0.135
- Ranking score [1]: 788.348
- B-score binding assay [2]: 0.217

Compound: Nc1ccn([C@@H]2O[C@H](CO)[C@@H](O)[C@@H]2O)c(=O)n1 [Cytarabine]
- B-score functional assay [1, 9]: 0.582
- Ranking score [1, 10]: 944.957
- B-score binding assay [2, 11]: 0.655

Compound: CCN1C(=O)NC(c2ccccc2)C1=O (centres unmarked) [Ethotoin]
- B-score functional assay [1, 9]: 3.216
- Ranking score [1, 10]: 1133.18
- B-score binding assay [2, 11]: 0.936

Compound: CC1(C)S[C@@H]2[C@H](NC(=O)Cc3ccccc3)C(=O)N2[C@H]1C(=O)O [Benzylpenicillin sodium]
- Ranking score [1, 6]: 344.346
- B-score functional assay [1, 7]: -0.043
- B-score binding assay [2, 8]: -1.247

Compound: CC1CNc2c(cccc2S(=O)(=O)N[C@@H](CCCNC(=N)N)C(=O)N2CC[C@@H](C)C[C@@H]2C(=O)O)C1 (some centres unmarked) [Argatroban]
- B-score functional assay [1, 3]: -0.168
- Ranking score [1, 4]: 668.874
- B-score binding assay [2, 5]: 0.437

Compound: CCCOc1ccc(C(=O)OCCN(CC)CC)cc1N [Proparacaine hydrochloride]
- B-score functional assay [1, 9]: 0.236
- Ranking score [1, 10]: 984.211
- B-score binding assay [2, 11]: 1.832

Compound: COc1ccccc1N1CCN(CCCCNC(=O)c2ccc3ccccc3c2)CC1.Cl.Cl [DO 897/99]
- Ranking score [1, 6]: 447.929
- B-score functional assay [1, 7]: -0.485
- B-score binding assay [2, 8]: -0.125

Compound: CC(NCCc1ccc(O)cc1)C(O)c1ccc(O)cc1 (centres unmarked) [Ritodrine hydrochloride]
- B-score functional assay [1, 9]: 1
- Ranking score [1, 10]: 1111.92
- B-score binding assay [2, 11]: 1.66

Compound: CCN(CC)C(=O)C1(c2ccccc2)CC1CN.Cl (centres unmarked) [Milnacipran hydrochloride]
- B-score functional assay [1, 9]: 1.822
- Ranking score [1, 10]: 955.465
- B-score binding assay [2, 11]: 0.152

Compound: CC(C)c1c(CN(C)C(C)Cc2ccccc2)n(C)n(-c2ccccc2)c1=O (centres unmarked) [Famprofazone]
- Ranking score [1, 6]: 376.915
- B-score functional assay [1, 7]: -0.708
- B-score binding assay [2, 8]: -0.284

Compound: CC(C)(C)NC[C@H](O)COc1nsnc1N1CCOCC1.O=C(O)/C=C\C(=O)O [Timolol maleate salt]
- B-score functional assay [1, 9]: 1.166
- Ranking score [1, 10]: 1052.08
- B-score binding assay [2, 11]: 0.866

Compound: C[C@@H]1[C@H](O)[C@@H](C)/C=C/C=C/CC/C=C/C=C/C=C/C=C/C(O[C@H]2O[C@H](C)[C@@H](O)[C@H](N)[C@@H]2O)CC2O[C@](O)(CC(O)C(O)CCC(O)CC(O)CC(O)CC(=O)O[C@H]1C)CC(O)C2C(=O)O (some centres unmarked) [Nystatine]
- B-score functional assay [1, 3]: -0.141
- Ranking score [1, 4]: 804.798
- B-score binding assay [2, 5]: 3.8

Compound: CSc1ccc2c(c1)C(N1CCN(C)CC1)Cc1ccccc1S2.O=C(O)/C=C\C(=O)O (centres unmarked) [Methiothepin maleate]
- Ranking score [1, 6]: 441.5
- B-score functional assay [1, 7]: 4.841
- B-score binding assay [2, 8]: -1.545

Compound: Nc1nnc(-c2cccc(Cl)c2Cl)c(N)n1 [Lamotrigine]
- B-score functional assay [1, 3]: 0.153
- Ranking score [1, 4]: 756.135
- B-score binding assay [2, 5]: 0.084

Compound: CCOC(=O)[C@@](C)(N)Cc1ccc(O)c(O)c1 [Methyldopate hydrochloride]
- B-score functional assay [1, 9]: 0.673
- Ranking score [1, 10]: 1088.5
- B-score binding assay [2, 11]: 2.397

Compound: CN(Cc1cnc2nc(N)nc(N)c2n1)c1ccc(C(=O)N[C@@H](CCC(=O)O)C(=O)O)cc1 [Methotrexate]
- B-score functional assay [1, 3]: 0.045
- Ranking score [1, 4]: 661.494
- B-score binding assay [2, 5]: -0.007

Compound: Nc1ccn([C@@H]2CS[C@H](CO)O2)c(=O)n1 [Lamivudine]
- Ranking score [1, 6]: 411.191
- B-score functional assay [1, 7]: 0.533
- B-score binding assay [2, 8]: -1.334

Compound: O=C(CCNNC(=O)c1ccncc1)NCc1ccccc1 [Nialamide]
- B-score functional assay [1, 9]: 0.331
- Ranking score [1, 10]: 907.486
- B-score binding assay [2, 11]: 0.697

Compound: NS(=O)(=O)c1cc(Cl)c(Cl)c(S(N)(=O)=O)c1 [Dichlorphenamide]
- B-score functional assay [1, 9]: 0.709
- Ranking score [1, 10]: 1091.62
- B-score binding assay [2, 11]: 2.215

Compound: C=C[C@H]1CN2CC[C@H]1C[C@@H]2[C@@H](O)c1ccnc2ccc(OC)cc12.Cl.O [Quinidine hydrochloride monohydrate]
- Ranking score [1, 4]: 834.825
- B-score binding assay [2, 5]: -0.002

Compound: CC(NCCC(c1ccccc1)c1ccccc1)c1ccccc1 (centres unmarked) [Fendiline hydrochloride]
- B-score functional assay [1, 9]: 0.662
- Ranking score [1, 10]: 880.552
- B-score binding assay [2, 11]: 0.223

Compound: Cc1cc2c(cc1S(N)(=O)=O)S(=O)(=O)CCC2 [Meticrane]
- B-score functional assay [1, 9]: 3.166
- Ranking score [1, 10]: 878.911
- B-score binding assay [2, 11]: -0.016

Compound: C[C@]12CCC(=O)C=C1CC[C@@H]1[C@@H]2C(=O)C[C@]2(C)C(=O)CC[C@@H]12 [Adrenosterone]
- Ranking score [1, 6]: 291.781
- B-score functional assay [1, 7]: -0.902
- B-score binding assay [2, 8]: -0.699

Compound: CC[C@@H]1C(=O)OC[C@@H]1Cc1cncn1C [Pilocarpine nitrate]
- B-score functional assay [1, 9]: 0.794
- Ranking score [1, 10]: 931.987
- B-score binding assay [2, 11]: 0.358

Compound: NCC1(CC(=O)O)CCCCC1 [Gabapentin]
- Ranking score [1, 6]: 428.131
- B-score functional assay [1, 7]: -0.982
- B-score binding assay [2, 8]: 0.068

Compound: NC12CC3CC(CC(C3)C1)C2.O=C(O)/C=C/C(=O)O [Adamantamine fumarate]
- B-score functional assay [1, 3]: -0.004
- Ranking score [1, 4]: 748.28
- B-score binding assay [2, 5]: 0.399

Compound: CCCCC(=O)N(Cc1ccc(-c2ccccc2-c2nnn[nH]2)cc1)[C@H](C(=O)O)C(C)C [Valsartan]
- Ranking score [1]: 721.211
- B-score functional assay [1, 3]: 0.156
- B-score binding assay [2]: 0.016

Compound: CC(C)[C@H]1CC[C@H](C(=O)N[C@H](Cc2ccccc2)C(=O)O)CC1 [Nateglinide]
- Ranking score [1, 6]: 461.181
- B-score functional assay [1, 7]: -1.02
- B-score binding assay [2, 8]: 0.322

Compound: CN1CCN(CCCN2c3ccccc3Sc3ccc(C(F)(F)F)cc32)CC1 [Trifluoperazine dihydrochloride]
- B-score functional assay [1, 3]: 0.212
- Ranking score [1, 4]: 714.92
- B-score binding assay [2, 5]: -0.002

Compound: CCOc1ccc2c(c1)C(C)=CC(C)(C)N2 [Ethoxyquin]
- Ranking score [1, 6]: 406.463
- B-score functional assay [1, 7]: 0.194
- B-score binding assay [2, 8]: -1.217

Compound: CCCNC(C)C(=O)Nc1ccccc1C (centres unmarked) [Prilocaine hydrochloride]
- Ranking score [1, 6]: 304.329
- B-score functional assay [1, 7]: 0.027
- B-score binding assay [2, 8]: -1.737

Compound: CN(C/C=C/c1ccccc1)Cc1cccc2ccccc12 [Naftifine hydrochloride]
- B-score functional assay [1, 3]: 0.726
- Ranking score [1, 4]: 685.775
- B-score binding assay [2, 5]: -0.234

Compound: CCn1cc(C(=O)O)c(=O)c2cc3c(cc21)OCO3 [Oxolinic acid]
- B-score functional assay [1, 3]: -0.139
- Ranking score [1, 4]: 776.518
- B-score binding assay [2, 5]: 1.837

Compound: CCCCN(CCCC)CCCOC(=O)c1ccc(N)cc1 [Butacaine]
- B-score functional assay [1, 3]: -0.185
- Ranking score [1, 4]: 672.37
- B-score binding assay [2, 5]: 0.529
